Measured values as given in US20240209028A1, “CNP COMPOUNDS” (priority 2022, published 2024).
Starred links: 1 amine or outer side, 2 acyl side, 3 side chain; linkers in the order of their positions; H or OH if unused. Positions of bridges follow the written chain, without caps; N, C: chain ends. Residues, ends and D or L forms follow the SMILES beside them. *: point of attachment. C18 diacid = O=C(O)CCCCCCCCCCCCCCCCC(=O)*; γGlu = O=C(O)[C@H](CCC(=O)[*:2])N[*:1]; AEEA = NCCOCCOCC(=O)O

Target: T1, human natriuretic peptide receptor 2 (hNPR2) (Homo sapiens, UniProt P20594)
T1 construct: expressed in transfected cells; host or cells: HEK293 (ATCC CRL-1573), clone 35, co-transfected with pGloSensor-42F
T1 sequence (P20594 23-1047): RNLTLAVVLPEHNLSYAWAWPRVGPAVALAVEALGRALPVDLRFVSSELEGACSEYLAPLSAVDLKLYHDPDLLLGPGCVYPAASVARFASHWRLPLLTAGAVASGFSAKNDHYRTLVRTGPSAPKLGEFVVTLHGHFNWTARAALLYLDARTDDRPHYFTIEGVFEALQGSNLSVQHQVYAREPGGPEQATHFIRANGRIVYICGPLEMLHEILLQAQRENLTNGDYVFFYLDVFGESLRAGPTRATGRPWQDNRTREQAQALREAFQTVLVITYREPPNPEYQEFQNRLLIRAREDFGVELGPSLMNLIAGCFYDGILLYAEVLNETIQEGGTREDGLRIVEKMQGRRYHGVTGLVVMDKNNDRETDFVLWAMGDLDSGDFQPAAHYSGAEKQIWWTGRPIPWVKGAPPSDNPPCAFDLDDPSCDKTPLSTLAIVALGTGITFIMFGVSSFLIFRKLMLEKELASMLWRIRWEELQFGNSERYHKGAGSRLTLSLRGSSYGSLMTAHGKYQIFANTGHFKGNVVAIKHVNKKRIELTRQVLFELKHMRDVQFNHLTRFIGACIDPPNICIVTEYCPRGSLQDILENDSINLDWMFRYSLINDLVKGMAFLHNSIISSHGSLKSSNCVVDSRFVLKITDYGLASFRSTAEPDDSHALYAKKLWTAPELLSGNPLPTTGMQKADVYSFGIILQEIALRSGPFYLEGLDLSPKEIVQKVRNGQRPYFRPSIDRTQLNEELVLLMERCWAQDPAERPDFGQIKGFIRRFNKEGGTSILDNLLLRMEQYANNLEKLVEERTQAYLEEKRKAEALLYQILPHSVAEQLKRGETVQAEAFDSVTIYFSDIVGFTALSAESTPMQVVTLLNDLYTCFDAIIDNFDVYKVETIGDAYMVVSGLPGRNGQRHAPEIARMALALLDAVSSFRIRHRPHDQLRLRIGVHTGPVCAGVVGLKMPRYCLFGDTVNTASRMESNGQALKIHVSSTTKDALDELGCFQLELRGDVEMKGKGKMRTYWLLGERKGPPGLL
Test: In vitro hNPR2 activity assay (cGMP GloSensor reporter, HEK293)
Type: cell-based
Conditions: for hNPR2 0% HSA. [EC50% rel CNP]: potency relative to CNP22 (0065)
Method: To evaluate the in vitro activity of CNP22 (0065; Chem. 1) and CNP compounds of the invention, they were tested for their ability to induce production of cyclic guanosine monophosphate (cGMP) in reporter cells expressing the human natriuretic peptide receptor 2 (hNPR2).
Cell culture: To produce the reporter cell line, HEK293 (ATCC® CRL-1573™) cells were stably transfected with the pGloSensor-42F reporter plasmid (GloSensor cGMP reporter—luciferase, Promega) and an expression plasmid encoding the hNPR2 receptor. A single cell clone was isolated for the reporter cell line. When reporter cells are exposed to an hNPR2 activating compound, hNPR2 cause production of cGMP. […] Active GloSensor luciferase is able to convert luciferin to oxyluciferin, a process that produces bioluminescence. Upon cell lysis and supply of luciferase substrate, luciferase activity can be quantified by detection of luminescence. Therefore, addition of an hNPR2 activating compound and subsequent addition of detection reagent to reporter cells causes generation of luminescence in a dose dependent manner. […] This measure, also referred to as in vitro potency, is reported for all compounds tested. In all the in vitro activity experiments, CNP22 was used as a positive in-plate control for hNPR2 activation. To reduce inter-assay variation, we also report the potency of each compound relative to the potency of the CNP22 control on each plate.
Procedure: HEK293-hNPR2/GloSensor clone 35 cells were continuously cultured in selection medium (DMEM containing 10% FCS, 1% P/S, 200 μg/mL G418 and 100 μg/mL hygromycin). To perform the assay, cells were detached with TrypLE Express (Gibco #12604013), put through a 70 μm cell strainer, counted and seeded in 30 μL/well assay medium (DMEM without phenol red and with 1% P/S) at 10,000 cells/well in white 384-well plates (Perkin Elmer #6007680) overnight. The following day, test compounds were serial diluted in dilution medium (DMEM without phenol red containing 1% OVA (Sigma #A5505 lot 04M7001V), 0.01% Tween20 (Roche #33766700) and 1% P/S) and 10 μL/well of diluted test compounds were subsequently added to the cells. For each compound, ten different concentrations in the range 0.25 μM-10 μM were tested. After 30 min of incubation at 37° C. and 5% CO2, 40 μL/well Bright-Glo detection reagent (Promega #E2650) was added. […] To determine the in vitro potency or EC50 of each test compound, a four parameter logistic regression was done on the raw data for each test compound using the Python package SciPy optimize. The average EC50 values are listed as “hNPR2 0% HSA. [EC50 (nM)]” in Table 2. A relative potency was calculated by the following expression: EC50 (CNP22 in-plate control)/EC50 (test compound)*100, shown as “hNPR2 0% HSA. [EC50% rel CNP]” in Table 2. A minimum of two replicates was measured for each test compound.

SMILES	hNPR2 0% HSA. [EC50% rel CNP]	EC50 (0% HSA, HEK293-hNPR2/GloSensor cells)
CC[C@H](C)[C@@H]1NC(=O)[C@H](CCCNC(=N)N)NC(=O)[C@H](CC(=O)O)NC(=O)[C@H](CC(C)C)NC(=O)[C@@H]2CCCN2C(=O)[C@H](CC(C)C)NC(=O)CNC(=O)[C@H](Cc2ccccc2)NC(=O)[C@@H](NC(=O)CNC(=O)[C@H](CCC(N)=O)NC(=O)[C@H](CO)NC(=O)[C@H](CC(C)C)NC(=O)CNC(=O)[C@H](CCCCN)NC(=O)[C@H](CCCCN)NC(=O)[C@H](CCC(N)=O)NC(=O)[C@H](C)NC(=O)CNC(=O)[C@H](CCCCN)NC(=O)[C@H](Cc2ccc(O)cc2)NC(=O)[C@H](CCCCN)NC(=O)[C@H](CCCNC(=N)N)NC(=O)[C@H](C)NC(=O)COCCOCCNC(=O)COCCOCCNC(=O)CC[C@H](NC(=O)CC[C@H](NC(=O)CC[C@H](NC(=O)CC[C@H](NC(=O)CCCCCCCCCCCCCCCCC(=O)O)C(=O)O)C(=O)O)C(=O)O)C(=O)O)CSSC[C@@H](C(=O)O)NC(=O)CNC(=O)[C@H](CC(C)C)NC(=O)CNC(=O)[C@H](CO)NC(=O)[C@H](CC(C)C)NC(=O)[C@H](CO)NC(=O)CNC1=O [compound 1456] ({C18 diacid-γGlu-γGlu-γGlu-γGlu-AEEA-AEEA}-ARKYKGAQKKGLSQGCFGLPLDRIGSLSGLGC-OH; disulfide 16-32)	50.4%	
CC[C@H](C)[C@@H]1NC(=O)[C@H](CCCNC(=N)N)NC(=O)[C@H](CC(=O)O)NC(=O)[C@H](CC(C)C)NC(=O)[C@H](CCCCN)NC(=O)[C@H](CC(C)C)NC(=O)CNC(=O)[C@H](Cc2ccccc2)NC(=O)[C@@H](NC(=O)CNC(=O)[C@H](CCCCN)NC(=O)[C@H](CO)NC(=O)[C@H](CC(C)C)NC(=O)CNC(=O)[C@H](Cc2c[nH]cn2)NC(=O)[C@H](Cc2c[nH]cn2)NC(=O)[C@H](CCC(N)=O)NC(=O)[C@H](C)NC(=O)CNC(=O)[C@H](Cc2c[nH]cn2)NC(=O)[C@H](Cc2ccc(O)cc2)NC(=O)COCCOCCNC(=O)COCCOCCNC(=O)CC[C@H](NC(=O)CCCCCCCCCCCCCCCCC(=O)O)C(=O)O)CSSC[C@@H](C(=O)O)NC(=O)CNC(=O)[C@H](CC(C)C)NC(=O)CNC(=O)[C@H](CO)NC(=O)[C@H](CC(C)C)NC(=O)[C@H](CO)NC(=O)CNC1=O [compound 1345] ({C18 diacid-γGlu-AEEA-AEEA}-YHGAQHHGLSKGCFGLKLDRIGSLSGLGC-OH; disulfide 13-29)	21.1%	0.38 nM
CC[C@H](C)[C@@H]1NC(=O)[C@H](CCCNC(=N)N)NC(=O)[C@H](CC(=O)O)NC(=O)[C@H](CC(C)C)NC(=O)[C@@H]2CCCN2C(=O)[C@H](CC(C)C)NC(=O)CNC(=O)[C@H](Cc2ccccc2)NC(=O)[C@@H](NC(=O)CNC(=O)[C@H](CCC(N)=O)NC(=O)[C@H](CO)NC(=O)[C@H](CC(C)C)NC(=O)CNC(=O)[C@H](CCCCN)NC(=O)[C@H](CCCCN)NC(=O)[C@H](CCC(N)=O)NC(=O)[C@H](C)NC(=O)CNC(=O)[C@H](CCC(=O)O)NC(=O)[C@H](Cc2ccc(O)cc2)NC(=O)COCCOCCNC(=O)COCCOCCNC(=O)COCCOCCNC(=O)COCCOCCNC(=O)CC[C@H](NC(=O)CCCCCCCCCCCCCCCCC(=O)O)C(=O)O)CSSC[C@@H](C(=O)O)NC(=O)CNC(=O)[C@H](CC(C)C)NC(=O)CNC(=O)[C@H](CO)NC(=O)[C@H](CC(C)C)NC(=O)[C@H](CO)NC(=O)CNC1=O [compound 1393] ({C18 diacid-γGlu-AEEA-AEEA-AEEA-AEEA}-YEGAQKKGLSQGCFGLPLDRIGSLSGLGC-OH; disulfide 13-29)	27.8%	
CC[C@H](C)[C@@H]1NC(=O)[C@H](CCCNC(=N)N)NC(=O)[C@H](CC(=O)O)NC(=O)[C@H](CC(C)C)NC(=O)[C@@H]2CCCN2C(=O)[C@H](CC(C)C)NC(=O)CNC(=O)[C@H](Cc2ccccc2)NC(=O)[C@@H](NC(=O)CNC(=O)[C@H](CO)NC(=O)[C@H](CO)NC(=O)[C@H](CC(C)C)NC(=O)CNC(=O)[C@H](CCCCN)NC(=O)[C@H](CCCCN)NC(=O)[C@H](CCC(N)=O)NC(=O)[C@H](C)NC(=O)CNC(=O)[C@H](CCC(=O)O)NC(=O)COCCOCCNC(=O)COCCOCCNC(=O)CC[C@H](NC(=O)CCCCCCCCCCCCCCCCC(=O)O)C(=O)O)CSSC[C@@H](C(=O)O)NC(=O)CNC(=O)[C@H](CC(C)C)NC(=O)CNC(=O)[C@H](CO)NC(=O)[C@H](CC(C)C)NC(=O)[C@H](CO)NC(=O)CNC1=O [compound 1339] ({C18 diacid-γGlu-AEEA-AEEA}-EGAQKKGLSSGCFGLPLDRIGSLSGLGC-OH; disulfide 12-28)	15.5%	
CC[C@H](C)[C@@H]1NC(=O)[C@H](CCCNC(=N)N)NC(=O)[C@H](CC(=O)O)NC(=O)[C@H](CC(C)C)NC(=O)[C@H](CCCCN)NC(=O)[C@H](CC(C)C)NC(=O)CNC(=O)[C@H](Cc2ccccc2)NC(=O)[C@@H](NC(=O)CNC(=O)[C@H](CCCCN)NC(=O)[C@H](CO)NC(=O)[C@H](CC(C)C)NC(=O)CN)CSSC[C@@H](C(=O)O)NC(=O)CNC(=O)[C@H](CC(C)C)NC(=O)CNC(=O)[C@H](CO)NC(=O)[C@H](CCSC)NC(=O)[C@H](CO)NC(=O)CNC1=O [compound 0065]	100.0%	
CC[C@H](C)[C@@H]1NC(=O)[C@H](CCCNC(=N)N)NC(=O)[C@H](CC(=O)O)NC(=O)[C@H](CC(C)C)NC(=O)[C@@H]2CCCN2C(=O)[C@H](CC(C)C)NC(=O)CNC(=O)[C@H](Cc2ccccc2)NC(=O)[C@@H](NC(=O)CNC(=O)[C@H](CO)NC(=O)[C@H](CO)NC(=O)[C@@H](NC(=O)CNC(=O)[C@@H](NC(=O)[C@H](CCCCN)NC(=O)[C@H](CCC(N)=O)NC(=O)[C@H](C)NC(=O)CNC(=O)[C@H](Cc2c[nH]cn2)NC(=O)[C@H](CCC(=O)O)NC(=O)[C@H](CCCCN)NC(=O)[C@H](CCCNC(=N)N)NC(=O)[C@H](C)NC(=O)COCCOCCNC(=O)COCCOCCNC(=O)CC[C@H](NC(=O)CCCCCCCCCCCCCCCCC(=O)O)C(=O)O)[C@@H](C)O)C(C)C)CSSC[C@@H](C(=O)O)NC(=O)CNC(=O)[C@H](CC(C)C)NC(=O)CNC(=O)[C@H](CO)NC(=O)[C@H](CC(C)C)NC(=O)[C@H](CO)NC(=O)CNC1=O [compound 1359] ({C18 diacid-γGlu-AEEA-AEEA}-ARKEHGAQKTGVSSGCFGLPLDRIGSLSGLGC-OH; disulfide 16-32; C-terminus assumed)	28.2%	
